According to article PMC8909127 (Frontiers in Microbiology, 2022):
“Also recorded” adds a separate entry of the source. Where two headings read alike, the source gives them in different places. No end group written: not given here.

Key:
ZO1 PDZ2 = target: T1, ZO1 PDZ2 (Homo sapiens, UniProt Q07157); assay: Microscale thermophoresis, E PBM peptide vs ZO1 PDZ2; format: binding
T1 construct: ZO-1-2 (PDZ2; residues 184–264); His tag (N); made in house; host or cells: E. coli BL21 Star (DE3)
T1 sequence (Q07157 184-264): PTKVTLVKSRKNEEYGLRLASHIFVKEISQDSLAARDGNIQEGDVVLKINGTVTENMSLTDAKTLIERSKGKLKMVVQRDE

MPP5 PDZ [1] = target: T2, MPP5 PDZ (Homo sapiens, UniProt Q8N3R9); assay: Microscale thermophoresis, E PBM peptide vs MPP5 PDZ; format: binding
T2 construct: MPP5 (residues 238–336); GST (N, cleaved yes); made in house; host or cells: E. coli BL21 Star (DE3)
T2 sequence (Q8N3R9 238-336): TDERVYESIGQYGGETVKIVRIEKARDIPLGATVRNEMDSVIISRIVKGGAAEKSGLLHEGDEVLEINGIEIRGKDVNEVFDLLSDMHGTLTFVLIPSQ

MLLT4 PDZ [2] = target: T3, MLLT4 PDZ (Homo sapiens, UniProt P55196); assay: Microscale thermophoresis, E PBM peptide vs MLLT4 PDZ; format: binding; conditions: MST
T3 construct: MLLT4; P55196; 1002-1095; His-MBP (N, cleaved yes); made in house; host or cells: E. coli BL21 Star (DE3)
T3 sequence (P55196 1002-1095): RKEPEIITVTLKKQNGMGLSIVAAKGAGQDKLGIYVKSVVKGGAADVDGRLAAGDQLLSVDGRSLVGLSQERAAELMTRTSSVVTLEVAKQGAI

PARD3 PDZ3 [3] = target: T4, PARD3 PDZ3 (Homo sapiens, UniProt Q8TEW0); assay: Microscale thermophoresis, E PBM peptide vs PARD3 PDZ3; format: binding; conditions: MST
T4 construct: PARDD3-3 (PDZ3; residues 582–685); His tag (N, cleaved yes); made in house; host or cells: E. coli BL21 Star (DE3)

LNX2 PDZ2 [4] = target: T5, LNX2 PDZ2 (Homo sapiens, UniProt Q8N448); assay: Microscale thermophoresis, E PBM peptide vs LNX2 PDZ2; format: binding
T5 construct: LNX2-2 (PDZ2; residues 334–426); His tag (N, cleaved yes); made in house; host or cells: E. coli BL21 Star (DE3)
T5 sequence (Q8N448 334-426): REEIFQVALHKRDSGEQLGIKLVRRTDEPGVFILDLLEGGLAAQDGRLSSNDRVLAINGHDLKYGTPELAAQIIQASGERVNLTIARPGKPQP

LNX2 PDZ2 [5] = target: T6, LNX2 PDZ2 (human, UniProt Q8N448 334-426); assay: MST; […]; PBS tween 20 0.05%; room temperature; […]; duplicate; conditions: both partners purified
T6 construct: second PDZ domain of human LNX2, residues 334-426, numbering of the full-length human protein; […]; Labelled on amines with RED-NHS dye for MST; also called LNX2-2; not shown: His tag, N-terminal, cleaved
T6 sequence (looked up): T5 sequence (Q8N448 334-426)

ZO-1 PDZ2 = target: T7, ZO-1 PDZ2 (human, UniProt Q07157 184-264); assay: as above; conditions: both partners purified
T7 construct: second PDZ domain of human ZO-1 (TJP1), residues 184-264, numbering of the full-length human protein; […]; Labelled on amines with RED-NHS dye for MST; also called TJP1 PDZ2; ZO-1-2
T7 sequence (looked up): T1 sequence (Q07157 184-264)

MPP5 PDZ [6] = target: T8, MPP5 PDZ (human, UniProt Q8N3R9 238-336); assay: as above; conditions: both partners purified
T8 construct: PDZ domain of human MPP5 (PALS1), residues 238-336, numbering of the full-length human protein; […]; Labelled on amines with RED-NHS dye for MST; also called PALS1 PDZ; not shown: GST, N-terminal, cleaved
T8 sequence (looked up): T2 sequence (Q8N3R9 238-336)

MLLT4 PDZ [7] = target: T9, MLLT4 PDZ (human, UniProt P55196 1002-1095); assay: as above; conditions: both partners purified
T9 construct: PDZ domain of human MLLT4 (Afadin); the residues named in the structure (1014-1022, 1071) fit 1002-1095; also called Afadin PDZ; not shown: His tag, N-terminal, cleaved; MBP, N-terminal, cleaved
T9 sequence (looked up): T3 sequence (P55196 1002-1095)

PARD3 PDZ3 [8] = target: T10, PARD3 PDZ3 (human, UniProt Q8TEW0 582-685); assay: as above; conditions: both partners purified
T10 construct: third PDZ domain of human PARD3, residues 582-685, numbering of the full-length human protein; […]; Labelled on amines with RED-NHS dye for MST; also called PARDD3-3; not shown: His tag, N-terminal, cleaved

[9] = Monolith NT.115, PDZ labeled RED-NHS, acetylated 12-mer peptide serially diluted, PBS tween 20 0.05%, room temperature, 80% LED, 20% MST power, MST time 30 s, averaged, ± standard deviation, two independent experiments
[10] = either no interaction, or affinity outside the tested concentration range, read-out: Kd, outside the tested concentration range

T4 sequence (Q8TEW0 582-685): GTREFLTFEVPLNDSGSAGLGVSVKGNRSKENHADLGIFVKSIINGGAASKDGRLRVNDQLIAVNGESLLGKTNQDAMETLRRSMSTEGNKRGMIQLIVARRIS
T10 sequence (Q8TEW0 582-685): as above

Ac-NLNSSRVLDLLV [SARS-CoV-2 P71L]
Effect of P71L on affinity vs WT (ZO1 PDZ2): considerably reduces
Effect of P71L on affinity vs WT (MPP5 PDZ [1]): does not significantly impact the affinity
Kd (MLLT4 PDZ [2]; [9]): not detectable in the tested concentration range; also recorded: No interaction detected
Kd (MLLT4 PDZ [2]; [10]): > 1000 µM
Kd (PARD3 PDZ3 [3]; [9]): not detectable in the tested concentration range; also recorded: No interaction detected
Kd (PARD3 PDZ3 [3]; [10]): > 1000 µM
Change of Kd compared with SARS-CoV-2 WT (LNX2 PDZ2 [4]): almost six times lower

B1: C-terminal SARS-CoV-2-E PBM P71L peptide of the beta variant (peptide)
peptide: NLNSSRVLDLLV
notes: also called P71L PBM peptide; SARS-CoV-2 P71L
Kd (LNX2 PDZ2 [5]): 47 µM
Kd (ZO-1 PDZ2): 133 µM
Kd (MPP5 PDZ [6]): 22 µM
Kd (MLLT4 PDZ [7]): > 1000 µM
Kd (PARD3 PDZ3 [8]): > 1000 µM
